Laboratory results: patent US20240262832A1, “SMALL MOLECULE MODULATORS OF GLUCOCEREBROSIDASE ACTIVITY AND USES THEREOF” (Vanqua Bio, Inc., priority 2021, published 2024)

Biological target: T1, GCase (Homo sapiens, UniProt P04062)
T1 construct: endogenous in cells; host or cells: HeLa cells
T1 sequence (P04062 40-536): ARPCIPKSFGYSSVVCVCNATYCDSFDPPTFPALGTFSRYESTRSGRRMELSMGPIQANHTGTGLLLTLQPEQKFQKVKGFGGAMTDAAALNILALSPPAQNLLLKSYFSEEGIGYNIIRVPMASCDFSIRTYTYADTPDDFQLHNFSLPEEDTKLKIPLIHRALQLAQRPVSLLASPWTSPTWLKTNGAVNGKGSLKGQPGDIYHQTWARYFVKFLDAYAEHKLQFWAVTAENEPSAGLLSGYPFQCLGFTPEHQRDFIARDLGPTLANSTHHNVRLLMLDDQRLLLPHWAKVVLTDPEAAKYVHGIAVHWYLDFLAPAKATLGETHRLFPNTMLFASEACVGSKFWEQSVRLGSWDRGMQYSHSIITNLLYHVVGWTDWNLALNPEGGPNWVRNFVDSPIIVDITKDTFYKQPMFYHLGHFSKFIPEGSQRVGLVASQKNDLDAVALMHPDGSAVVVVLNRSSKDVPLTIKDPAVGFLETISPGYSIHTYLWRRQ
Assay: activation of GCase in a live cell PFB assay in HELA cells
Format: cell-based

Compound | EC50 [µM]
FC(F)Cn1ncc2ncc(N3C[C@@H]4[C@@H](COc5ccc(C(F)(F)F)cn5)[C@@H]4C3)nc21 [Compound 61, (1R,5S,6S)-3-[1-(2,2-difluoroethyl)-1H-pyrazolo[3,4-b]pyrazin-6-yl]-6-({[5-(trifluoromethyl)pyridin-2-yl]oxy}methyl)-3-azabicyclo[3.1.0]hexane] | 10 to 50
CCNC(=O)c1ccc(N2CCC(COc3ccc(OC)cc3)CC2)nc1 [Compound 438] | 10 to 50
FC(F)Cn1ncc2ncc(N3CCC(COc4ccc(C(F)(F)F)nc4)CC3)nc21 [Compound 316, 1-(2,2-Difluoroethyl)-6-(4-(((6-(trifluoromethyl)pyridin-3-yl)oxy)methyl)piperidin-1-yl)-1H-pyrazolo[3,4-b]pyrazine] | < 10
C[C@H]1C[C@@H](COc2cccnc2C(F)(F)F)CN(c2cnc3cnn(CC4COC4)c3n2)C1 (single isomer, unassigned) [Compound 233b] | < 10
CCn1cc(-c2cccc(C(=O)N3CCC(OCc4ccccc4)CC3)c2)cn1 [Compound 476] | 50 to 100
O=C(Cc1c[nH]c2ccccc12)N1CCC(Oc2ccc(C(F)(F)F)cn2)CC1 [Compound 7] | 10 to 50
CC(CC1CCCN(c2cnc3cnn(CC(F)F)c3n2)C1)c1ccccc1C(F)(F)F (stereo not shown) [Compound 66, 1-(2,2-Difluoroethyl)-6-(3-(2-(2-(trifluoromethyl)phenyl)propyl)piperidin-1-yl)-1H-pyrazolo[3,4-b]pyrazine] | 10 to 50
Cn1c(-c2ccccc2)cc2nc(C(=O)N3CCCC(COc4cccnc4C(F)(F)F)C3)cnc21 (stereo not shown) [Compound 68, (5-methyl-6-phenyl-5H-pyrrolo[2,3-b]pyrazin-2-yl)(3-(((2-(trifluoromethyl)pyridin-3-yl)oxy)methyl)piperidin-1-yl)methanone] | 10 to 50
O=C([C@@H]1C[C@H]1c1ccc(F)cc1)N1CCCC(COc2ccccc2)C1 (stereo partly shown) [Compound 219] | 10 to 50
Fc1cc(F)cc(OC[C@@H]2[C@H]3CN(c4cnc5cnn(C6COC6)c5n4)C[C@@H]23)c1 [Compound 124] | 10 to 50
Fc1cc(F)cc(OCC2CCCN(c3cnc4cnn(C5COC5)c4n3)C2)c1 (stereo not shown) [Compound 88, 6-(3-((3,5-Difluorophenoxy)methyl)piperidin-1-yl)-1-(oxetan-3-yl)-1H-pyrazolo[3,4-b]pyrazine] | 10 to 50
Cn1c(-c2ccccc2)cc2ncc(N3CCCC(COc4cccnc4C(F)(F)F)C3)nc21 (stereo not shown) [Compound 33, 5-Methyl-6-phenyl-3-(3-(((2-(trifluoromethyl)pyridin-3-yl)oxy)methyl)piperidin-1-yl)-5H-pyrrolo[2,3-b]pyrazine] | 10 to 50
FC(F)(F)c1ncccc1OC[C@@H]1[C@H]2CN(c3cncc(-c4nncs4)n3)C[C@@H]12 [Compound 40, (1R,5S,6S)-3-[6-(1,3,4-Thiadiazol-2-yl)pyrazin-2-yl]-6-({[2-(trifluoromethyl)pyridin-3-yl]oxy}methyl)-3-azabicyclo[3.1.0]hexane] | 10 to 50
FC(F)(F)c1ncccc1OC[C@@H]1[C@H]2CN(c3cnc4cnn(C5COC5)c4n3)C[C@@H]12 [Compound 98, 1-(Oxetan-3-yl)-6-((1R,5S,6r)-6-(((2-(trifluoromethyl)pyridin-3-yl)oxy)methyl)-3-azabicyclo[3.1.0]hexan-3-yl)-1H-pyrazolo[3,4-b]pyrazine] | > 100
CC1CC(COc2cccnc2C(F)(F)F)CN(c2cncc(-c3nncs3)n2)C1 (single isomer, unassigned) [Compound 262b] | < 10
N#Cc1cc(C(F)(F)F)cnc1OC1CCN(C(=O)c2ccc3cc[nH]c3c2)CC1 [Compound 332, 2-((1-(1H-Indole-6-carbonyl)piperidin-4-yl)oxy)-5-(trifluoromethyl)nicotinonitrile] | 10 to 50
CC(C)c1cc(C(=O)N2CC(COc3cccnc3C(F)(F)F)CCC2C)[nH]n1 (stereo not shown) [Compound 231, (3-isopropyl-1H-pyrazol-5-yl)(2-methyl-5-(((2-(trifluoromethyl)pyridin-3-yl)oxy)methyl)piperidin-1-yl)methanone] | < 10
C[C@H]1CCN(c2cnc3cnn(CC(F)F)c3n2)C[C@@H]1COc1cccnc1C(F)(F)F [Compound 48c, 1-(2,2-difluoroethyl)-6-((3R,4S)-4-methyl-3-(((2-(trifluoromethyl)pyridin-3-yl)oxy)methyl)piperidin-1-yl)-1H-pyrazolo[3,4-b]pyrazine] | 10 to 50
FC(F)Cn1ncc2ncc(N3C[C@@H]4[C@@H](COc5cncc(C(F)(F)F)c5)[C@@H]4C3)nc21 [Compound 62, (1R,5S,6S)-3-[1-(2,2-difluoroethyl)-1H-pyrazolo[3,4-b]pyrazin-6-yl]-6-({[5-(trifluoromethyl)pyridin-3-yl]oxy}methyl)-3-azabicyclo[3.1.0]hexane] | 10 to 50
FC(F)Cn1ncc2ncc(N3C[C@@H]4[C@@H](COc5ccnc(C(F)(F)F)c5)[C@@H]4C3)nc21 [Compound 92, (1R,5S,6S)-3-[1-(2,2-difluoroethyl)-1H-pyrazolo[3,4-b]pyrazin-6-yl]-6-({[2-(trifluoromethyl)pyridin-4-yl]oxy}methyl)-3-azabicyclo[3.1.0]hexane] | 10 to 50

Compound | EC50 [µM]
O=C(Cc1csc(-c2ccccc2)n1)N1CCC(Oc2ncccc2C(F)(F)F)CC1 [Compound 401, 2-(2-Phenyl-1,3-thiazol-4-yl)-1-(4-{[3-(trifluoromethyl)pyridin-2-yl]oxy}piperidin-1-yl)ethan-1-one] | 10 to 50
CC1CCN(c2cnc3cnn(CC(F)F)c3n2)CC1COc1cccnc1C(F)(F)F (stereo not shown) [Compound 48, 1-(2,2-Difluoroethyl)-6-(4-methyl-3-(((2-(trifluoromethyl)pyridin-3-yl)oxy)methyl)piperidin-1-yl)-1H-pyrazolo[3,4-b]pyrazine] | < 10
FC(F)Cn1ncc2ncc(N3CCCC(F)(COc4cccc(C(F)(F)F)n4)C3)nc21 (stereo not shown) [Compound 43, 2-({1-[1-(2,2-Difluoroethyl)-1H-pyrazolo[3,4-b]pyrazin-6-yl]-3-fluoropiperidin-3-yl}methoxy)-6-(trifluoromethyl)pyridine] | 10 to 50
CC(CC1CCCN(c2cnc3cnn(CC(F)F)c3n2)C1)c1cccnc1C(F)(F)F (stereo not shown) [Compound 108, 1-(2,2-Difluoroethyl)-6-(3-(2-(2-(trifluoromethyl)pyridin-3-yl)propyl)piperidin-1-yl)-1H-pyrazolo[3,4-b]pyrazine] | 50 to 100
Cc1ccccc1CCC1CCCN(C(=O)c2cnn(-c3ccccc3)n2)C1 (stereo not shown) [Compound 15, (3-(2-methylphenethyl)piperidin-1-yl)(2-phenyl-2H-1,2,3-triazol-4-yl)methanone] | 10 to 50
COc1ccc(OCC2CCN(C(=O)Nc3ccc(C#N)cc3F)CC2)cc1 [Compound 443] | 50 to 100
CC(=O)N1CCC(c2cc3ncc(N4CCCC(COc5ccccc5C)C4)nc3n2C)CC1 (stereo not shown) [Compound 86, 1-(4-(5-Methyl-3-(3-((o-tolyloxy)methyl)piperidin-1-yl)-5H-pyrrolo[2,3-b]pyrazin-6-yl)piperidin-1-yl)ethan-1-one] | 10 to 50
N#Cc1cccnc1OC1CCN(C(=O)C2(c3ccc(Cl)cc3)CCCC2)CC1 [Compound 370] | < 10
FC(F)Cn1ncc2ncc(N3CCC(COc4ccc(C(F)(F)F)cn4)CC3)nc21 [Compound 317, 1-(2,2-Difluoroethyl)-6-(4-(((5-(trifluoromethyl)pyridin-2-yl)oxy)methyl)piperidin-1-yl)-1H-pyrazolo[3,4-b]pyrazine] | 10 to 50
c1ccc(COC2CCN(c3cnc4ccccc4n3)CC2)cc1 [Compound 417, 2-[4-(Benzyloxy)piperidin-1-yl]quinoxaline] | 10 to 50
CCc1nc2ccccc2n1CC(=O)N1CCCC(COc2ccccc2)C1 (stereo not shown) [Compound 140] | 10 to 50
FC(F)Cn1ncc2ncc(N3CCC(COc4ccncc4C(F)(F)F)CC3)nc21 [Compound 308, 1-(2,2-Difluoroethyl)-6-(4-(((3-(trifluoromethyl)pyridin-4-yl)oxy)methyl)piperidin-1-yl)-1H-pyrazolo[3,4-b]pyrazine] | < 10
O=C(c1ncc(Cl)s1)N1CCCC(COc2ccccc2)C1 (stereo not shown) [Compound 137] | > 100
Cc1ccccc1OCC1CCCN(C(=O)c2cnc3cc(-c4ccccc4)n(C)c3n2)C1 (stereo not shown) [Compound 49, (5-methyl-6-phenyl-5H-pyrrolo[2,3-b]pyrazin-3-yl)(3-((o-tolyloxy)methyl)piperidin-1-yl)methanone] | 10 to 50
O=C(c1ccc2cc[nH]c2c1)N1CCC(Oc2cc(C(F)(F)F)ccn2)CC1 [Compound 322, (1H-Indol-6-yl)(4-((4-(trifluoromethyl)pyridin-2-yl)oxy)piperidin-1-yl)methanone] | 50 to 100
COc1ccc(OCC2CCN(C(=O)c3cc(C)oc3C)CC2)cc1 [Compound 459] | 10 to 50
COc1ccc(OCC2CCN(CC(=O)Nc3cn(C)nc3C)CC2)cc1 [Compound 479] | 10 to 50
FC(F)(F)c1ncccc1OC[C@@H]1[C@H]2CN(c3nccc(-c4nncs4)n3)C[C@@H]12 [Compound 121, (1R,5S,6r)-3-(4-(1,3,4-Thiadiazol-2-yl)pyrimidin-2-yl)-6-(((2-(trifluoromethyl)pyridin-3-yl)oxy)methyl)-3-azabicyclo[3.1.0]hexane] | 10 to 50
CCn1ncnc1CN1CCC(COc2ccc(OC)cc2)CC1 [Compound 455] | 10 to 50
O=C(c1ccc2cc[nH]c2c1)N1CCC(Oc2ncccc2C(F)(F)F)CC1 [Compound 321, (1H-Indol-6-yl)(4-((3-(trifluoromethyl)pyridin-2-yl)oxy)piperidin-1-yl)methanone] | 10 to 50
